Measurements as given in patent US11780821B2, “Inhibitors of fibroblast activation protein” (Praxis Biotech LLC, priority 2017, dated 2023).
Like-named read-outs stand apart in the source and are kept apart here.

Columns and labels:
[1] = Intravenous and oral bioavailability in mice; assay type: in vivo; details: mouse; for AUC(0-t): oral (PO) 10 mg/kg single dose; for bioavailability: PO 10 mg/kg vs IV 2 mg/kg, read-out: F (bioavailability)
Procedure: The pharmacokinetic properties of exemplary test compounds were assayed after administration of an intravenous (IV) 2 mg/kg or oral (PO) 10 mg/kg single dose in mice. Exemplary test compounds were formulated at 0.4 and 1 mg/ml in a vehicle containing Poly-Ethylene Glycol 200 (PEG200; Cat. No. #P3015, Sigma Aldrich) and distilled water (dH2O) (50/50, v/v) as dosing solutions for intravenous and oral administration, respectively.
C57BL/6j and Balb/c mice, approximately 8-10 weeks old, were obtained from the vivarium Fundación Ciencia & Vida Chile (Santiago, Chile) and maintained in a temperature-controlled room with 12/12 hr light/dark schedule with food and water ad libitum. Animals were acclimated for a minimum period of 4 days upon arrival at the testing facility.
On the day of study, mice were weighed and identified by marking the tail with numbers using a non-toxic permanent marker for designation into the experimental groups (n=3 per group). Each mouse in the IV dosing groups received a systemic bolus of 2 mg/kg dosing solution via the caudal vein.
Non-dosed mice were used to collect samples of zero time points. […] Blood samples were centrifuged immediately at 9,000 g at 4° C. for 5 min and the plasma was separated.
The plasma samples were analyzed by QTRAP 4500 triple quadrupole mass spectrometer (Applied Biosystems SCIEX) in positive or negative ion mode depending on the tested compound and interfaced with an ekspert ultraLC 100-XL UPLC System (eksigent) to determine the concentration of the exemplary test compound. […] The precipitated samples were centrifuged at 6,100 g for 30 min at 4° C. Following centrifugation, an aliquot of each supernatant was transferred into a clean sample vial and diluted with two volumes of aqueous mobile phase (0.2% formic acid in water). Samples were injected onto a reverse phase analytical column (YMC Triart C18; 2.0×50 mm; 1.9 μm; YMC CO) and eluted with a gradient of 0.1 or 0.2% formic acid in Acetonitrile. Test compound and internal standard were monitored by a multiple reaction monitoring (MRM) experiment using Analyst software (v1.6.2, Applied Biosystems SCIEX). Quantitation was conducted using MultiQuant software (v2.1, Applied Biosystems SCIEX) and the resulting calibration curve was fitted with a linear or quadratic regression and 1/x weighting.
IV and PO PK parameters were calculated from the concentration-time data using Phoenix WinNonlin software (v6.4, Certara, Princeton, N.J.) by noncompartmental analysis. Area under the concentration-time curve (AUClast) was estimated using a log-linear trapezoidal method, from the dosing time to the last measurable concentration.

[2] = target: T1, recombinant human FAPα (rhFAPα) (Homo sapiens, UniProt Q12884); test: FAPα enzymatic endopeptidase (collagenase) activity assay; assay type: biochemical; details: DQ collagen substrate, read-out: rhFAPα (endo IC50)
T1 construct: purchased R&S system (so in the source)
T1 sequence (Q12884 1-760): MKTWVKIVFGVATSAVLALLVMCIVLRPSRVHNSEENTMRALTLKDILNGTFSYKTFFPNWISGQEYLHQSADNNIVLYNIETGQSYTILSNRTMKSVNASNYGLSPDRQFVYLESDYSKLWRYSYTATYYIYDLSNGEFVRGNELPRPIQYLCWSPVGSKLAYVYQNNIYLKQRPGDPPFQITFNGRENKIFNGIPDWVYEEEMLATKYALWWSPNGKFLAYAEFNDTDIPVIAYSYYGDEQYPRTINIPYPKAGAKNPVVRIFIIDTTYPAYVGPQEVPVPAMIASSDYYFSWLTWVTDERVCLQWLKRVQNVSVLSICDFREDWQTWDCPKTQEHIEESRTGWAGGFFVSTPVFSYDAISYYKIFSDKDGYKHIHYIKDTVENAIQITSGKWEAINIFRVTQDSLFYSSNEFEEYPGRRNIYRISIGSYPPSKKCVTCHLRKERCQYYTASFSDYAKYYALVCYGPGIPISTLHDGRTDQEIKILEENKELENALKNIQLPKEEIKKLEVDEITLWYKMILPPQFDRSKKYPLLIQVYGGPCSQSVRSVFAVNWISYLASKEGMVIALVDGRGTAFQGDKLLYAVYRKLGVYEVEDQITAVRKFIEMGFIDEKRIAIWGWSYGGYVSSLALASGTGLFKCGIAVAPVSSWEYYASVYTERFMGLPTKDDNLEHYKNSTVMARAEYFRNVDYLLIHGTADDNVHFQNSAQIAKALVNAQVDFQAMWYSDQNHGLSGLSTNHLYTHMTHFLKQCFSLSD
Procedure: FAPα enzymatic endopeptidase (collagenase) activity assay. […] All measurements were performed as a single point.

| SMILES | AUC(0-t) ([1]; plasma) [ng·h/mL] | bioavailability ([1]; plasma) [%] | IC50 [2] [nM] | bioavailability ([1]; in vivo) [%] | AUC(0-t) ([1]; in vivo, plasma) [ng·h/mL] |
| --- | --- | --- | --- | --- | --- |
| N#C[C@@H]1CC(F)(F)CN1C(=O)CNC(=O)c1c[nH]c(=O)cc1-c1ccc(F)cc1 [Compound 109, (S)—N-(2-(2-cyano-4,4-difluoropyrrolidin-1-yl)-2-oxoethyl)-4-(4-fluorophenyl)-6-oxo-1,6-dihydropyridine-3-carboxamide] | 2140 | 9 | < 1000 | – | – |
| N#C[C@@H]1CC(F)(F)CN1C(=O)CNC(=O)c1ccncc1C1=CCNCC1 [Compound 105, (S)—N-(2-(2-cyano-4,4-difluoropyrrolidin-1-yl)-2-oxoethyl)-1′,2′,3′,6′-tetrahydro-[3,4′-bipyridine]-4-carboxamide 2,2,2-trifluoroacetate] | – | – | < 1000 | 3 | 18.3 |
| N#C[C@@H]1CC(F)(F)CN1C(=O)CNC(=O)c1ccncc1Cc1ccccc1 [Compound 50, (S)-3-benzyl-N-(2-(2-cyano-4,4-difluoropyrrolidin-1-yl)-2-oxoethyl)isonicotinamide] | 1090 | 79.6 | – | – | – |
| N#C[C@@H]1CC(F)(F)CN1C(=O)CNC(=O)c1ccncc1C1CC1 [Compound 24, (S)—N-(2-(2-cyano-4,4-difluoropyrrolidin-1-yl)-2-oxoethyl)-3-cyclopropylisonicotinamide] | 910 | 54 | < 1000 | – | – |
| N#C[C@@H]1CC(F)(F)CN1C(=O)CNC(=O)c1ccncc1-c1ccc(F)cc1 [Compound 52, (S)—N-(2-(2-cyano-4,4-difluoropyrrolidin-1-yl)-2-oxoethyl)-3-(4-fluorophenyl)isonicotinamide] | 721 | 30.3 | – | – | – |
| N#C[C@@H]1CC(F)(F)CN1C(=O)CNC(=O)c1ccncc1-c1ccccc1 [Compound 13, (S)—N-(2-(2-cyano-4,4-difluoropyrrolidin-1-yl)-2-oxoethyl)-3-phenylisonicotinamide] | 760 | 27.9 | < 1000 | – | – |
| N#C[C@@H]1CC(F)(F)CN1C(=O)CNC(=O)c1c[nH]c(=O)c2ccccc12 [Example 1, (S)—N-(2-(2-cyano-4,4-difluoropyrrolidin-1-yl)-2-oxoethyl)-1-oxo-1,2-dihydroisoquinoline-4-carboxamide] | 327 | 6.3 | < 1000 | – | – |
| N#C[C@@H]1CC(F)(F)CN1C(=O)CNC(=O)c1c[nH]c(=O)c(-c2ccccc2)c1 [Compound 14, (S)—N-(2-(2-cyano-4,4-difluoropyrrolidin-1-yl)-2-oxoethyl)-6-oxo-5-phenyl-1,6-dihydropyridine-3-carboxamide] | – | – | < 1000 | – | – |
